Data from patent US20230339862A1, “NOVEL DIBENZOACRIDINIUM DERIVATIVES, THEIR PROCESS OF PREPARATION AND THEIR USE FOR TREATING VIRAL INFECTIONS” (priority 2020, published 2023).
Read-outs that look alike come from different tables or passages of the source.

Key:
[1] = test system: HIV-1; assay: microbe, parasite or virus in culture; type: cell-based; settings: for inhibition of HIV-1 infectivity: 10 µM
[2] = test system: HIV-1; settings: MT4 cells, reported in 2014; read-out: IC50 HIV-1 infectivity; cited from earlier work
[3] = test system: HIV-1; settings: primary infected cells versus MT4 infected cell lines; cited from earlier work
[4] = test system: Ebola Gabon virus; assay: microbe, parasite or virus in culture; type: cell-based; settings: Zaire ebolavirus, read-out: Ebola virus inhibition (immunohistochemistry, infectious titer)
[5] = test system: Marburg virus; assay: organism not typed; type: cell-based; settings: read-out: Marburg virus inhibition (immunohistochemistry, infectious titer)

For `CN(C)c1ccc(Nc2c3ccc(NC(=O)CCN4CCCC4)cc3nc3cc(NC(=O)CCN4CCCC4)ccc23)cc1` [Braco19], the IC50 ([1]; Human immunodeficiency virus 1, HeLaP4, read-out: IC50 HIV-1 infectivity) is listed as roughly 8 µM, the IC50 [2] is listed as roughly 6 µM and the “antiviral effect in primary infected cells” value [3] is listed as “less efficient with respect to MT4 infected cell lines”.
With `COc1ccc2c(ccc3c2cc2c4ccc(OC)cc4ccc2[n+]3-c2ccccc2)c1.[Cl-]` [C031] the “activity on HIV-1 relative to BRACO-19” value [1] was “at least five time more active” and the “inhibition of HIV-1 infectivity” value [1] was “Complete inhibition”.
With `c1ccc(-[n+]2c3ccc4ccccc4c3cc3c4ccccc4ccc32)cc1` [C038] the “inhibition of HIV-1 infectivity” value [1] was “Complete inhibition”.
For `COc1ccc2c(ccc3c2cc2c4ccc(OC)cc4ccc2[n+]3-c2ccc([N+](=O)[O-])cc2)c1` [C0370], the “activity on HIV-1 relative to BRACO-19” value [1] was “at least five time more active”, the “selectivity index (SI)” value [1] was 17 and the “inhibition of HIV-1 infectivity” value [1] was “Complete inhibition”.
`c1ccc(C[n+]2c3ccc4ccccc4c3cc3c4ccccc4ccc32)cc1` [CO39] showed an inhibition at 5 µM ([4]; 5 μM) of roughly 60%, an inhibition at 20 µM ([4]; 20 μM) of roughly 100% and an inhibition at 5 µM ([5]; 5 μM) of 30%. The inhibition at 20 µM ([5]; 20 μM) was roughly 100%.
